# Data from patent publication US20120202787A1, “Novel Heteroaryl Imidazoles And Heteroaryl Triazoles As Gamma-Secretase Modulators” (Pfizer Inc., priority 2009, published 2012).
# Test system: γ-secretase (production of amyloid beta protein Aβ (1-42))
# Test: Cell-based γ-secretase assay with ELISA readout (Aβ (1-42) production)
# Set-up: species or system human WT-APP overexpressing CHO cells
# Details: human WT-APP overexpressing CHO cells; Aβ (1-42) ELISA; about 24 hours at 37° C.; free base or salt; read-out: Aβ 42B IC50 (μM) (Geometric Mean of 2-8 Determinations)
# Method: Cell-Based γ-Secretase Assay with ELISA Readout
# The ability of compounds to modulate production of amyloid beta protein Aβ (1-42) was determined using human WT-APP overexpressing CHO cells. Cells were plated at 22,000 cells/100 μL well in 96 well tissue culture treated, clear plates (Falcon) in DMEM/F12 based medium and incubated for 24 hours at 37° C. Compounds for testing were diluted in 100% DMSO to achieve an eleven points, half log, dose response for IC50 determinations. Compounds were added in fresh medium to achieve 1% final DMSO. Appropriate vehicle and inhibitor controls were added to obtain maximum and minimum inhibition values for the assay before the plates were incubated for about 24 hours at 37° C.
# Coating of ELISA assay plates was initiated by addition of 50 μL/well of an in-house Aβ (1-42) specific antibody at (4 μg/mL) in 0.1 M NaHCO3 (pH 9.0) into black 384-well Maxisorp® plates (Nunc) and incubated overnight at 4° C. The capture antibody was then aspirated from the ELISA assay plates and 100 μL/well of Blocking Buffer (Dulbecco's PBS, 1.5% BSA (Sigma A7030)) added. Ambient temperature incubation was allowed to proceed for a minimum of two hours before washing 2×100 μL with Wash Buffer (Dulbecco's PBS, 0.05% Tween 20). Assay Buffer (Dulbecco's PBS, 1.0% BSA (Sigma A7030), 0.05% Tween 20) 20 μL/well was then added.
# After incubation overnight at 37° C., 5% CO2, 40 μL (in duplicate) of experimental conditioned media were transferred into wells of the blocked ELISA plates containing the capture antibody, followed by overnight incubation at 4° C. Cell toxicity was measured in the corresponding cells after removal of the media for the Aβ (1-42) assay by a colorimetric cell proliferation assay (CellTiter 96® AQueous One Solution Cell Proliferation Assay, Promega) according to the manufacturer's instructions.
# After overnight incubation of the ELISA assay plates at 4° C., unbound Aβ peptides were removed thorough (4×100 μL) washes with Wash Buffer. Europium (Eu) labeled (custom labeled, Perkin Elmer) Aβ (1-16) 6e10 Monoclonal Antibody (Covance #SIG-39320 was added, (50 μL /well Eu-6e10 @ 1:5000, 20 uM EDTA) in Assay Buffer. Incubation at ambient temperature for a minimum of 2 hours was followed by (4×100 μL) washes with Wash Buffer, before 50 μL/well of Delfia Enhancement Solution (Perkin Elmer) was added. Following a one hour ambient temperature incubation, the plates were read on an EnVision plate reader (Perkin Elmer) using standard DELFIA TRF settings. Data analysis including inhibitory IC50 determination was performed using nonlinear regression fit analysis (in-house software) and the appropriate plate mean values for the maximum and minimum inhibition controls.
row,IC50,SMILES
1,1.82 µM,"COc1nc(C(=O)NC(C)(C)c2cccc(Cl)c2)cnc1-n1cnc(C)c1 [Example 15, N-[1-(3-chlorophenyl)-1-methylethyl]-6-methoxy-5-(4-methyl-1H-imidazol-1-yl)pyrazine-2-carboxamide]"
2,1.94 µM,"COc1nc(C(=O)NCc2cnc(-c3ccccc3)s2)cnc1-n1cnc(C)c1 [Example 16, 6-methoxy-5-(4-methyl-1H-imidazol-1-yl)-N-[(2-phenyl-1,3-thiazol-5-yl)methyl]pyrazine-2-carboxamide]"
3,2.41 µM,"COc1nc(C(=O)NC(C)(C)c2ccc(F)cc2)cnc1-n1cnc(C)c1 [Example 17, N-[1-(4-fluorophenyl)-1-methylethyl]-6-methoxy-5-(4-methyl-1H-imidazol-1-yl)pyrazine-2-carboxamide]"
4,5.43 µM,"COc1nc(C(=O)NCc2ccc(OC(F)(F)F)cc2)cnc1-n1cnc(C)c1 [Example 18, 6-methoxy-5-(4-methyl-1H-imidazol-1-yl)-N-[4-(trifluoromethoxy)benzyl]-pyrazine-2-carboxamide]"
5,5.77 µM,"COc1nc(C(=O)NCC2CCCC2)cnc1-n1cnc(C)c1 [Example 19, N-(cyclopentylmethyl)-6-methoxy-5-(4-methyl-1H-imidazol-1-yl)pyrazine-2-carboxamide]"
6,5.33 µM,"COc1cc(C(=O)N2CC[C@H](Oc3ccccc3C(F)(F)F)C2)ncc1-n1cnc(C)c1 [Example 20, 4-methoxy-5-(4-methyl-1H-imidazol-1-yl)-2-({(3S)-3-[2-(trifluoromethyl)-phenoxy]pyrrolidin-1-yl}carbonyl)pyridine]"
7,6.25 µM,"COc1cc(C(=O)NCCc2c(C)[nH]c3c(Cl)cc(Cl)cc23)ncc1-n1cnc(C)c1 [Example 21, N-[2-(5,7-dichloro-2-methyl-1H-indol-3-yl)ethyl]-4-methoxy-5-(4-methyl-1H-imidazol-1-yl)pyridine-2-carboxamide]"
8,> 15.8 µM,"COc1cc(C(=O)NCc2sc3c(F)ccc(F)c3c2Cl)ncc1-n1cnc(C)c1 [Example 22, N-[(3-chloro-4,7-difluoro-1-benzothien-2-yl)methyl]-4-methoxy-5-(4-methyl-1H-imidazol-1-yl)pyridine-2-carboxamide]"
9,17.2 µM,"COc1cc(C(=O)NCC2(c3ccc(C(F)(F)F)cc3)CCOCC2)ncc1-n1cnc(C)c1 [Example 23, 4-methoxy-5-(4-methyl-1H-imidazol-1-yl)-N-({4-[4-(trifluoromethyl)phenyl]-tetrahydro-2H-pyran-4-yl}methyl)pyridine-2-carboxamide]"
10,18 µM,"COc1cc(C(=O)NCCc2c[nH]c3ccc(Cl)cc23)ncc1-n1cnc(C)c1 [Example 24, N-[2-(5-chloro-1H-indol-3-yl)ethyl]-4-methoxy-5-(4-methyl-1H-imidazol-1-yl)pyridine-2-carboxamide]"
11,0.316 µM,"COc1nc(C(=O)NCC2(c3ccccc3)CCCC2)ccc1-n1cnc(C)c1 [Example 25, 6-methoxy-5-(4-methyl-1H-imidazol-1-yl)-N-[(1-phenylcycloentyl)methyl] pyridine-2-carboxamide]"
12,0.524 µM,"COc1nc(C(=O)NCCc2nc3ccc(Cl)cc3o2)ccc1-n1cnc(C)c1 [Example 26, N-[2-(6-chloro-1,3-benzoxazol-2-yl)ethyl]-6-methoxy-5-(4-methyl-1H-imidazol-1-yl)pyridine-2-carboxamide]"
13,0.438 µM,"COc1nc(C(=O)NCC2(c3cccc(C)c3)CCC2)ccc1-n1cnc(C)c1 [Example 27, 6-methoxy-5-(4-methyl-1H-imidazol-1-yl)-N-{[1-(3-methylphenyl)cyclobutyl]-methyl}pyridine-2-carboxamide]"
14,0.314 µM,"COc1nc(C(=O)NCC2(c3ccc(F)cc3)CCC2)ccc1-n1cnc(C)c1 [Example 28, N-{[1-(4-fluorophenyl)-cyclobutyl]methyl}-6-methoxy-5-(4-methyl-1H-imidazol-1-yl)pyridine-2-carboxamide]"
15,0.502 µM,"COc1nc(C(=O)NCC(C)(C)c2ccc(F)cc2)ccc1-n1cnc(C)c1 [Example 29, N-[2-(4-fluorophenyl)-2-methylpropyl]-6-methoxy-5-(4-methyl-1H-imidazol-1-yl)pyridine-2-carboxamide]"
16,0.502 µM,"COc1nc(C(=O)NCc2cccc(C(F)(F)F)c2)ccc1-n1cnc(C)c1 [Example 30, 6-methoxy-5-(4-methyl-1H-imidazol-1-yl)-N-[3-(trifluoromethyl)benzyl]-pyridine-2-carboxamide]"
17,1.01 µM,"COc1nc(C(=O)NCc2ccc(OC(F)(F)F)cc2)ccc1-n1cnc(C)c1 [Example 31, 6-methoxy-5-(4-methyl-1H-imidazol-1-yl)-N-[4-(trifluoromethoxy)benzyl]-pyridine-2-carboxamide]"
18,2.01 µM,"COc1nc(C(=O)NC(C)(C)c2ccc(F)cc2)ccc1-n1cnc(C)c1 [Example 32, N-[1-(4-fluorophenyl)-1-methylethyl]-6-methoxy-5-(4-methyl-1H-imidazol-1-yl)pyridine-2-carboxamide]"
19,0.726 µM,"COc1nc(C(=O)NCC2CCCC2)ccc1-n1cnc(C)c1 [Example 33, N-(cyclopentylmethyl)-6-methoxy-5-(4-methyl-1H-imidazol-1-yl)pyridine-2-carboxamide]"
20,1.37 µM,"Cc1cn(-c2ncc(C(=O)NCC3(c4ccc(Cl)cc4)CC3)cc2Cl)cn1 [Example 34, 5-chloro-N-{[1-(4-chlorophenyl)cyclopropyl]methyl}-6-(4-methyl-1H-imidazol-1-yl)nicotinamide]"
21,5.77 µM,"Cc1cn(-c2ncc(C(=O)NCC3(c4ccc(F)cc4)CC3)cc2Cl)cn1 [Example 35, 5-chloro-N-{[1-(4-fluorophenyl)cyclopropyl]-methyl}-6-(4-methyl-1H-imidazol-1-yl)nicotinamide]"
22,0.207 µM,"COc1nc(C(=O)N2CC[C@H](Oc3ccccc3C(F)(F)F)C2)ccc1-n1cnc(C)c1 [Example 36, 2-methoxy-3-(4-methyl-1H-imidazol-1-yl)-6-({(3S)-3-[2-(trifluoromethyl)-phenoxy]pyrrolidin-1-yl}carbonyl)pyridine]"
23,0.285 µM,"COc1nc(C(=O)N2CC[C@@H](Oc3ccccc3C(F)(F)F)C2)ccc1-n1cnc(C)c1 [Example 37, 2-methoxy-3-(4-methyl-1H-imidazol-1-yl)-6-({(3R)-3-[2-(trifluoromethyl)-phenoxy]pyrrolidin-1-yl}carbonyl)pyridine]"
24,0.667 µM,"COc1nc(C(=O)NCc2cc(C)ccc2C)ccc1-n1cnc(C)c1 [Example 38, N-(2,5-dimethylbenzyl)-6-methoxy-5-(4-methyl-1H-imidazol-1-yl)pyridine-2-carboxamide]"
25,1.34 µM,"COc1nc(C(=O)N[C@@H]2CCc3ccc(Cl)cc32)ccc1-n1cnc(C)c1 [Example 39, N-[(1R)-6-chloro-2,3-dihydro-1H-inden-1-yl]-6-methoxy-5-(4-methyl-1H-imidazol-1-yl)pyridine-2-carboxamide]"
26,0.259 µM,"COc1nc(C(=O)N[C@H]2CCc3ccc(Cl)cc32)ccc1-n1cnc(C)c1 [Example 40, N-[(1S)-6-chloro-2,3-dihydro-1H-inden-1-yl]-6-methoxy-5-(4-methyl-1H-imidazol-1-yl)pyridine-2-carboxamide]"
27,0.332 µM,"COc1nc(C(=O)NCc2cccc(Cl)c2C)ccc1-n1cnc(C)c1 [Example 41, N-(3-chloro-2-methylbenzyl)-6-methoxy-5-(4-methyl-1H-imidazol-1-yl)pyridine-2-carboxamide]"
